In ChEMBL document CHEMBL3608256, “Strongylophorines, new protein tyrosine phosphatase 1B inhibitors, from the marine sponge Strongylophora strongilata collected at Iriomote Island” (Bioorg Med Chem Lett, 2015):

target: T1, Tyrosine-protein phosphatase non-receptor type 1 (Homo sapiens, UniProt P18031); test: Inhibition of PTP1B (unknown origin) pre-incubated for 10 mins before addition of p-nitrophenyl phosphate substrate and measured 30 mins post substrate addition
T1 sequence (P18031 whole entry): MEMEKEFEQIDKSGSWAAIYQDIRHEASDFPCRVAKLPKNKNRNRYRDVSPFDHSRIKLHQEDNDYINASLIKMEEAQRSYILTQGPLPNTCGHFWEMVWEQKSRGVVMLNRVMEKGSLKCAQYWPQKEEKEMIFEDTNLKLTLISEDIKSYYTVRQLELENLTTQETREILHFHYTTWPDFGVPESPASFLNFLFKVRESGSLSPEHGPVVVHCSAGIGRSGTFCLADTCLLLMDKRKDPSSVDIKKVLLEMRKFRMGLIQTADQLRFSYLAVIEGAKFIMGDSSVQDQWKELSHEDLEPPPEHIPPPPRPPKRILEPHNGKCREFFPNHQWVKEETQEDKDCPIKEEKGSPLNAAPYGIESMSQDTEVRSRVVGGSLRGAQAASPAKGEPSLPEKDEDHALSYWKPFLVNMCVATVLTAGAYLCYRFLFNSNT

| Compound | IC50 [µM] |
| --- | --- |
| CCO[C@H]1OC[C@]23CCC[C@]1(C)[C@@H]2CC[C@]1(C)[C@@H]3CC[C@](C)(O)[C@H]1Cc1cc(O)ccc1O | 8.7 |
| C[C@@]12CC[C@@H]3[C@]4(CCC[C@@]3(C)C(=O)OC4)[C@H]1CC[C@]1(C)Oc3ccc(O)cc3C[C@@H]21 [strongylophorine-2] | > 24.4 |
| C[C@]12CCC[C@@]3(CO[C@@H]1O)[C@H]2CC[C@]1(C)[C@@H]3CC[C@]2(C)Oc3ccc(O)cc3C[C@@H]12 | 11.9 |
| C[C@@]12CC[C@@H]3[C@]4(CCC[C@]3(C)C(=O)OC4)[C@H]1CC[C@](C)(O)[C@H]2Cc1cc(O)ccc1O [strongylophorine-8] | 21.2 |
| CO[C@H]1OC[C@]23CCC[C@]1(C)[C@@H]2CC[C@]1(C)[C@@H]3CC[C@]2(C)Oc3ccccc3C[C@@H]12 | 8.5 |

Now from value to molecule:

| IC50 [µM] | Compound |
| --- | --- |
| 14.8 | C[C@]1(CO)CCC[C@@]2(CO)[C@H]1CC[C@]1(C)[C@@H]2CC[C@]2(C)Oc3ccc(O)cc3C[C@@H]12 |
| 9 | C[C@]12CCC[C@](C)(C(=O)O)[C@@H]1CC[C@]1(C)[C@@H]2CC[C@]2(C)Oc3ccc(O)cc3C[C@@H]12 [Strongylophorin-3] |
